Experimental data reported in PubChem BioAssay AID1919013 (Molecular Pharmacology Branch, DTP, NCI, 2023).

System: LG0703-F498-PDC complex spheroid growth
Assay: Anticancer human tumor LG0703-F498-PDC patient-derived lung adenocarcinoma cell line growth inhibition [AhR]
Conditions: for IC50: curve of first compound; for viability, T/C: stronger effect = lower value
Procedure, shortened: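 Complex tumor spheroids co-cultured with HUVEC and human MSC stroma; AhR antagonists tested in combination with standard-of-care and investigational agents. Top concentration at or near clinical Cmax (else 10 microM), half-log dilutions; growth expressed as percent test/control.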

[1] = second compound 0.1 µM, first compound 0.0316 µM
[2] = second compound 0.1 µM, first compound 0.1 µM
[3] = second compound 0.1 µM, first compound 0.316 µM
[4] = second compound 0.1 µM, first compound 1 µM
[5] = second compound 0.1 µM, first compound 3.16 µM
[6] = second compound 0.1 µM, first compound 10 µM
[7] = second compound 0.316 µM, first compound 0.0316 µM
[8] = second compound 0.316 µM, first compound 0.1 µM
[9] = second compound 0.316 µM, first compound 0.316 µM
[10] = second compound 0.316 µM, first compound 1 µM
[11] = second compound 0.316 µM, first compound 3.16 µM
[12] = second compound 0.316 µM, first compound 10 µM
[13] = second compound 1 µM, first compound 0.0316 µM
[14] = second compound 1 µM, first compound 0.1 µM
[15] = second compound 1 µM, first compound 0.316 µM
[16] = second compound 1 µM, first compound 1 µM
[17] = second compound 1 µM, first compound 3.16 µM
[18] = second compound 1 µM, first compound 10 µM
[19] = second compound 3.16 µM, first compound 0.0316 µM
[20] = second compound 3.16 µM, first compound 0.1 µM
[21] = second compound 3.16 µM, first compound 0.316 µM
[22] = second compound 3.16 µM, first compound 1 µM
[23] = second compound 3.16 µM, first compound 3.16 µM
[24] = second compound 3.16 µM, first compound 10 µM
[25] = second compound 10 µM, first compound 0.0316 µM
[26] = second compound 10 µM, first compound 0.1 µM
[27] = second compound 10 µM, first compound 0.316 µM
[28] = second compound 10 µM, first compound 1 µM
[29] = second compound 10 µM, first compound 3.16 µM
[30] = second compound 10 µM, first compound 10 µM
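Further: luminescence taken as a proxy for viable cell amount.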
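Wherever viability, T/C is given: percent of DMSO vehicle control where 100% means growth equal to vehicle.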

SMILES: CC(C)c1c(-c2ccccc2)nc2c(C#N)c[nH]n2c1=O + Cc1cncc(-c2nc(NCCc3c[nH]c4ccccc34)c3ncn(C(C)C)c3n2)c1
- IC50 (second compound 0.1 µM): > 10000 nM
- IC50 (second compound 0.316 µM): > 10000 nM
- IC50 (second compound 1 µM): > 10000 nM
- IC50 (second compound 3.16 µM): < 31.6 nM
- IC50 (second compound 10 µM): < 31.6 nM
- viability, T/C [1]: 108%
- viability, T/C [2]: 101%
- viability, T/C [3]: 87.2%
- viability, T/C [4]: 101%
- viability, T/C [5]: 89.1%
- viability, T/C [6]: 81.6%
- viability, T/C [7]: 97.3%
- viability, T/C [8]: 93.4%
- viability, T/C [9]: 96.5%
- viability, T/C [10]: 95.8%
- viability, T/C [11]: 103%
- viability, T/C [12]: 79.5%
- viability, T/C [13]: 106%
- viability, T/C [14]: 119%
- viability, T/C [15]: 101%
- viability, T/C [16]: 91.6%
- viability, T/C [17]: 91.9%
- viability, T/C [18]: 89.6%
- viability, T/C [19]: 39.1%
- viability, T/C [20]: 40%
- viability, T/C [21]: 36.9%
- viability, T/C [22]: 31.7%
- viability, T/C [23]: 29.9%
- viability, T/C [24]: 33%
- viability, T/C [25]: 1.38%
- viability, T/C [26]: 1.01%
- viability, T/C [27]: 1.64%
- viability, T/C [28]: 2.22%
- viability, T/C [29]: 0.57%
- viability, T/C [30]: 1.89%

SMILES: CC1COCCN1c1cc(-c2ccnn2C)c2ccnc(-c3ccn[nH]3)c2n1 (stereo not given) + Cc1cncc(-c2nc(NCCc3c[nH]c4ccccc34)c3ncn(C(C)C)c3n2)c1
- IC50 (second compound 0.1 µM): 621 nM
- IC50 (second compound 0.316 µM): 279 nM
- IC50 (second compound 1 µM): 468 nM
- IC50 (second compound 3.16 µM): < 3.16 nM
- IC50 (second compound 10 µM): < 3.16 nM
- viability, T/C (second compound 0.1 µM, first compound 0.00316 µM): 104%
- viability, T/C (second compound 0.1 µM, first compound 0.01 µM): 103%
- viability, T/C [1]: 112%
- viability, T/C [2]: 82.3%
- viability, T/C [3]: 64.6%
- viability, T/C [4]: 40.8%
- viability, T/C (second compound 0.316 µM, first compound 0.00316 µM): 111%
- viability, T/C (second compound 0.316 µM, first compound 0.01 µM): 120%
- viability, T/C [7]: 102%
- viability, T/C [8]: 76.4%
- viability, T/C [9]: 47.5%
- viability, T/C [10]: 34.3%
- viability, T/C (second compound 1 µM, first compound 0.00316 µM): 119%
- viability, T/C (second compound 1 µM, first compound 0.01 µM): 112%
- viability, T/C [13]: 111%
- viability, T/C [14]: 83.2%
- viability, T/C [15]: 58.9%
- viability, T/C [16]: 35.5%
- viability, T/C (second compound 3.16 µM, first compound 0.00316 µM): 38%
- viability, T/C (second compound 3.16 µM, first compound 0.01 µM): 34.6%
- viability, T/C [19]: 33.2%
- viability, T/C [20]: 27.5%
- viability, T/C [21]: 18.7%
- viability, T/C [22]: 15.7%
- viability, T/C (second compound 10 µM, first compound 0.00316 µM): 1.11%
- viability, T/C (second compound 10 µM, first compound 0.01 µM): 1.21%
- viability, T/C [25]: 1.42%
- viability, T/C [26]: 1.71%
- viability, T/C [27]: 0.8%
- viability, T/C [28]: 2.39%

SMILES: COc1ccc([C@@H](O)c2cc(-c3ncnc4cc(N5CCOCC5)ccc34)c(F)cc2Cl)nn1 + Cc1cncc(-c2nc(NCCc3c[nH]c4ccccc34)c3ncn(C(C)C)c3n2)c1
- IC50 (second compound 0.1 µM): 5420 nM
- IC50 (second compound 0.316 µM): 4810 nM
- IC50 (second compound 1 µM): 4590 nM
- IC50 (second compound 3.16 µM): < 31.6 nM
- IC50 (second compound 10 µM): < 31.6 nM
- viability, T/C [1]: 87.8%
- viability, T/C [2]: 107%
- viability, T/C [3]: 98.1%
- viability, T/C [4]: 82.2%
- viability, T/C [5]: 65.3%
- viability, T/C [6]: 34%
- viability, T/C [7]: 105%
- viability, T/C [8]: 97%
- viability, T/C [9]: 97.8%
- viability, T/C [10]: 82%
- viability, T/C [11]: 63.5%
- viability, T/C [12]: 27.5%
- viability, T/C [13]: 95.9%
- viability, T/C [14]: 104%
- viability, T/C [15]: 103%
- viability, T/C [16]: 92.4%
- viability, T/C [17]: 60.4%
- viability, T/C [18]: 28.7%
- viability, T/C [19]: 36.7%
- viability, T/C [20]: 42.4%
- viability, T/C [21]: 34%
- viability, T/C [22]: 27.4%
- viability, T/C [23]: 17.8%
- viability, T/C [24]: 13%
- viability, T/C [25]: 1.26%
- viability, T/C [26]: 1%
- viability, T/C [27]: 1.42%
- viability, T/C [28]: 1.17%
- viability, T/C [29]: 0.52%
- viability, T/C [30]: 1.67%

SMILES: O=C(C=Cn1cnc(-c2cc(C(F)(F)F)cc(C(F)(F)F)c2)n1)NNc1cnccn1 + Cc1cncc(-c2nc(NCCc3c[nH]c4ccccc34)c3ncn(C(C)C)c3n2)c1
- IC50 (second compound 0.1 µM): 116 nM
- IC50 (second compound 0.316 µM): 115 nM
- IC50 (second compound 1 µM): 99.1 nM
- IC50 (second compound 3.16 µM): 24.9 nM
- IC50 (second compound 10 µM): < 9.49 nM
- viability, T/C (second compound 0.1 µM, first compound 0.00949 µM): 87.9%
- viability, T/C (second compound 0.1 µM, first compound 0.03 µM): 70.4%
- viability, T/C (second compound 0.1 µM, first compound 0.0949 µM): 49.8%
- viability, T/C (second compound 0.1 µM, first compound 0.3 µM): 40%
- viability, T/C (second compound 0.1 µM, first compound 0.949 µM): 37.4%
- viability, T/C (second compound 0.1 µM, first compound 3 µM): 27.9%
- viability, T/C (second compound 0.316 µM, first compound 0.00949 µM): 82.4%
- viability, T/C (second compound 0.316 µM, first compound 0.03 µM): 69.7%
- viability, T/C (second compound 0.316 µM, first compound 0.0949 µM): 51.8%
- viability, T/C (second compound 0.316 µM, first compound 0.3 µM): 36.2%
- viability, T/C (second compound 0.316 µM, first compound 0.949 µM): 37.4%
- viability, T/C (second compound 0.316 µM, first compound 3 µM): 25%
- viability, T/C (second compound 1 µM, first compound 0.00949 µM): 82.6%
- viability, T/C (second compound 1 µM, first compound 0.03 µM): 70.9%
- viability, T/C (second compound 1 µM, first compound 0.0949 µM): 48.8%
- viability, T/C (second compound 1 µM, first compound 0.3 µM): 38.2%
- viability, T/C (second compound 1 µM, first compound 0.949 µM): 29.2%
- viability, T/C (second compound 1 µM, first compound 3 µM): 27.9%
- viability, T/C (second compound 3.16 µM, first compound 0.00949 µM): 62.3%
- viability, T/C (second compound 3.16 µM, first compound 0.03 µM): 47.4%
- viability, T/C (second compound 3.16 µM, first compound 0.0949 µM): 34.3%
- viability, T/C (second compound 3.16 µM, first compound 0.3 µM): 26%
- viability, T/C (second compound 3.16 µM, first compound 0.949 µM): 26.3%
- viability, T/C (second compound 3.16 µM, first compound 3 µM): 24.9%
- viability, T/C (second compound 10 µM, first compound 0.00949 µM): 1.57%
- viability, T/C (second compound 10 µM, first compound 0.03 µM): 1.26%
- viability, T/C (second compound 10 µM, first compound 0.0949 µM): 1.76%
- viability, T/C (second compound 10 µM, first compound 0.3 µM): 2.84%
- viability, T/C (second compound 10 µM, first compound 0.949 µM): 2.94%
- viability, T/C (second compound 10 µM, first compound 3 µM): 4.72%
